The test system of one series is Alternaria Solani. Put plainly: Alternaria solani / tomato / preventative. It counts as in vivo. As to conditions: tomato plants cv. Roter Gnom, inoculated two days after application, leaf area covered by disease 5 to 7 days after application, read-out: inhibited fungal infestation. How it is done:
Alternaria Solani/Tomato/Preventative (Action Against Alternaria on Tomato) 4-week old tomato plants cv. Roter Gnom were treated with the formulated test compound in a spray chamber. The test plants were inoculated by spraying them with a spore suspension two days after application. The inoculated test plants were incubated at 22/18° C. (day/night) and 95% rh in a greenhouse and the percentage leaf area covered by disease was assessed when an appropriate level of disease appears on untreated check plants (5 to 7 days after application).

For series [1], the system named is Botryotinia fuckeliana (Botrytis cinerea). Put plainly: Botryotinia fuckeliana (Botrytis cinerea) / tomato / preventative. It counts as in vivo. The conditions noted are these: tomato plants cv. Roter Gnom, inoculated two days after application, leaf area covered by disease 5 to 6 days after application, read-out: inhibited fungal infestation. Here is the method:
Botryotinia fuckeliana (Botrytis cinerea)/Tomato/Preventative (Action Against Botrytis on Tomato) 4-week old tomato plants cv. Roter Gnom were treated with the formulated test compound in a spray chamber. The test plants were inoculated by spraying them with a spore suspension two days after application. The inoculated test plants were incubated at 20° C. and 95% rh in a greenhouse and the percentage leaf area covered by disease is assessed when an appropriate level of disease appears on untreated check plants (5 to 6 days after application).

For series [2], the system named is Erysiphe necator (Uncinula necator). Briefly: Erysiphe necator (Uncinula necator) / grape / preventative. It counts as in vivo. As to conditions: grape seedlings cv. Gutedel, inoculated 1 day after application, leaf area covered by disease 7 to 9 days after application, read-out: inhibited fungal infestation. How it is done: Erysiphe necator (Uncinula necator)/Grape/Preventative (Action Against Powdery Mildew on Grape) 5-week old grape seedlings cv. Gutedel were treated with the formulated test compound in a spray chamber. The test plants are inoculated by shaking plants infected with grape powdery mildew above them 1 day after application. The inoculated test plants were incubated at 24/22° C. (day/night) and 70% rh under a light regime of 14/10 h (light/dark) and the percentage leaf area covered by disease was assessed when an appropriate level of disease appears on untreated check plants (7 to 9 days after application).

The subject of series [3] is Magnaporthe grisea (Pyricularia oryzae). Put plainly: whole plant or invertebrate. It counts as in vivo. As to conditions: read-out: inhibited fungal infestation.
Series [4] has as its system Mycosphaerella graminicola (Septoria tritici). Briefly: Mycosphaerella graminicola (Septoria tritici) / wheat / preventive. It counts as in vivo. The conditions noted are these: Zymoseptoria tritici, wheat plants cv. Riband, inoculated one day after application, leaf area covered by disease 16 to 19 days after application, read-out: inhibited fungal infestation. How it is done: Mycosphaerella graminicola (Septoria tritici)/Wheat/Preventive (Action Against Septoria Leaf Spot on Wheat) 2-week old wheat plants cv. Riband were treated with the formulated test compound in a spray chamber. The test plants were inoculated by spraying a spore suspension on them one day after application. After an incubation period of 1 day at 22° C./21° C. (day/night) and 95% rh, the test plants were kept at 22° C./21° C. (day/night) and 70% rh in a greenhouse. The percentage leaf area covered by disease is assessed when an appropriate level of disease appears on untreated check plants (16 to 19 days after application).

For series [5] the test system is unchanged. Put plainly: Mycosphaerella graminicola (Septoria tritici) / wheat / curative. The conditions noted are these: Zymoseptoria tritici, wheat plants cv. Riband, treated 5 days after inoculation, leaf area covered by disease 11 to 14 days after application, read-out: inhibited fungal infestation. It counts as in vivo. How it is done: Mycosphaerella graminicola (Septoria tritici)/Wheat/Curative (Action Against Septoria Leaf Spot on Wheat) 2-week old wheat plants cv. Riband are inoculated by spraying them with a spore suspension. After an incubation period of 2 days at 22° C./21° C. (day/night) and 95% rh, the test plants are kept at 22° C./21° C. (day/night) and 70% rh in a climate chamber. The inoculated test plants are treated with the formulated test compound in a spray chamber 5 days after inoculation. The percentage leaf area covered by disease is assessed when an appropriate level of disease appears on untreated check plants (11 to 14 days after application).

The subject of a further series is Puccinia recondita. Briefly: Puccinia recondita / wheat / preventative. The conditions noted are these: wheat plants cv. Arina, inoculated one day after application, leaf area covered by disease 12 to 14 days after application, read-out: inhibited fungal infestation. It counts as in vivo. Here is the method: Puccinia recondita/Wheat/Preventative (Action Against Brown Rust on Wheat) 2-week old wheat plants cv. Arina were treated with the formulated test compound in a spray chamber. The test plants were inoculated by spraying them with a spore suspension one day after application. After an incubation period of 1 day at 20° C. and 95% rh, the test plants were kept at 20° C./18° C. (day/night) and 60% rh in a greenhouse. The percentage leaf area covered by disease was assessed when an appropriate level of disease appears on untreated check plants (12 to 14 days after application).

Series [6] relates to Pyrenophora teres (Helminthosporium teres). Put plainly: Pyrenophora teres (Helminthosporium teres) / barley / preventative. It counts as in vivo. As to conditions: barley plants cv. Regina, inoculated 2 days after application, leaf area covered by disease 5 to 7 days after application, read-out: inhibited fungal infestation. Here is the method: Pyrenophora teres (Helminthosporium teres)/Barley/Preventative (Action Against Net Blotch on Barley) 1-week old barley plants cv. Regina were treated with the formulated test compound in a spray chamber. The test plants were inoculated by spraying them with a spore suspension 2 days after application. The inoculated test plants were incubated at 20° C. and 95% rh and the percentage leaf area covered by disease was assessed when an appropriate level of disease appears on untreated check plants (5 to 7 days after application).

Bounds are passed on as bounds.

`C#Cc1ccc(-c2c(C)n[nH]c(=O)c2-c2c(F)cc(F)cc2F)cc1` [Compound 1, 5-(4-ethynylphenyl)-6-methyl-4-(2,4,6-trifluorophenyl)-2H-pyridazin-3-one] yielded a melting point of 252 to 254 °C.

Molecule `C#Cc1ccc(-c2c(C)nnc(Cl)c2-c2c(F)cc(F)cc2F)cc1` [Compound 2, 3-chloro-5-(4-ethynylphenyl)-6-methyl-4-(2,4,6-trifluorophenyl)pyridazine] displayed a melting point of 174 to 175 °C. For the same molecule, the inhibition at 200 ppm with Alternaria Solani was no less than 80%. Besides, the inhibition at 200 ppm in series [1] was no less than 80%. Besides, the inhibition at 200 ppm in series [2] is no less than 80%. Besides, the inhibition at 200 ppm in series [3] is no less than 80%. The inhibition at 200 ppm in series [4] was no less than 80%. Besides, the inhibition at 200 ppm in [5] was no less than 80%. The inhibition at 200 ppm in the series on Puccinia recondita was no less than 80%. Besides, in series [6], the inhibition at 200 ppm was no less than 80%.

`C#Cc1ccc(-c2c(C)nnc(OC)c2-c2c(F)cc(OC)cc2F)cc1` [Compound 4, 4-(2,6-difluoro-4-methoxyphenyl)-5-(4-ethynylphenyl)-3-methoxy-6-methylpyridazine] yielded a melting point of 192 to 193 °C. In the series with Alternaria Solani, the inhibition at 200 ppm was no less than 80%. In [1], the inhibition at 200 ppm was no less than 80%. Moreover, in series [3], the inhibition at 200 ppm was no less than 80%. Also, in series [4], the inhibition at 200 ppm was no less than 80%. Moreover, the inhibition at 200 ppm in series [5] was no less than 80%. In addition, the inhibition at 200 ppm in series [6] is no less than 80%.

By melting point is commonly meant the temperature of the solid-liquid transition.

For the origin of these results see patent US8658644B2, “Pyridazine derivatives, processes for their preparation and their use as fungicides” (Syngenta Crop Protection, LLC, priority 2011, dated 2014).
